From ChEMBL document CHEMBL3227933, “Synthesis and preliminary biological studies of 4- and 5-[2-hydroxy-3-(isopropylamino)propoxy]benzimidazoles: selective beta2 adrenergic blocking agents” (J Med Chem, 1979) come the findings set out here.

Details in all cases: read-out: pA2 (converted)
Test [1] deals with Beta-2 adrenergic receptor (Cavia porcellus, UniProt Q8K4Z4). Nature of the test: Competitive antagonist activity at beta-2 adrenergic receptor in guinea pig assessed as inhibition of isoproterenol-induced tracheal relaxation.
Test [2] has as its target T1, Beta-1 adrenergic receptor (Cavia porcellus, UniProt B0FL73). Nature of the test: Competitive antagonist activity at beta-1 adrenergic receptor in guinea pig assessed as inhibition of isoproterenol-induced atrial contractile force. Details: species or system Cardiac atrium.
For test [3], the target named is T1, Beta-1 adrenergic receptor. Nature of the test: Competitive antagonist activity at beta-1 adrenergic receptor in guinea pig assessed as inhibition of isoproterenol-induced atrial beat rate. Details: species or system Cardiac atrium.

T1 sequence (B0FL73 whole entry): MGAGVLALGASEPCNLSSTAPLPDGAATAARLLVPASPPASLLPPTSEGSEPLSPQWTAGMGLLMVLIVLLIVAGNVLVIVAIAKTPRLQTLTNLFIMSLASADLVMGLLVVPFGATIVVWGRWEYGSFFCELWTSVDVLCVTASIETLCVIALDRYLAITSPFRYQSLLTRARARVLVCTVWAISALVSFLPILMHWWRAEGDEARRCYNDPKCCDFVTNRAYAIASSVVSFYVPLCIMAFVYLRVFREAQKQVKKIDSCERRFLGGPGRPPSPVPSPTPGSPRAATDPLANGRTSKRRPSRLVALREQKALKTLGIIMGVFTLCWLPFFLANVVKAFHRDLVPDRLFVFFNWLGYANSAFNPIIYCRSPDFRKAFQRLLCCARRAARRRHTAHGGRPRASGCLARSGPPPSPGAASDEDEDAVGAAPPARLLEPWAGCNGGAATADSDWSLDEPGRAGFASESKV
Chain of Beta-2 adrenergic receptor (Q8K4Z4 whole entry): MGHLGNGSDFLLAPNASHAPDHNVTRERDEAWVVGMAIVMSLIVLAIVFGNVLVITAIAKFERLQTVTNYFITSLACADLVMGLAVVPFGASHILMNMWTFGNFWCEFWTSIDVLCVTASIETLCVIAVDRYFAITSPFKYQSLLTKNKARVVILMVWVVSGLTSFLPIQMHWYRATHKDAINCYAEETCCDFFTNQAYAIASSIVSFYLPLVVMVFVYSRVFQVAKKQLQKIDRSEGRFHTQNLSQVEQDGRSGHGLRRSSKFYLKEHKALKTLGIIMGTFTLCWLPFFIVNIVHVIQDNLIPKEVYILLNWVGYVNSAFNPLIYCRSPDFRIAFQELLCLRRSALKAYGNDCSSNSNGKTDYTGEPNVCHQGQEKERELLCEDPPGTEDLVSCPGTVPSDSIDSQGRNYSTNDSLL

As to `CC(C)NCC(O)COc1ccc2[nH]cnc2c1` (stereo unspecified), the Kb in test [1] was 0.38 µM; in test [2], 0.851 µM; in test [3], 1 µM.

In the case of `CC(C)NCC(O)COc1cccc2[nH]cnc12` (stereo unspecified), the Kb in test [1] was 0.00229 µM; in test [2], 0.0309 µM; in test [3], 0.0398 µM.
